From US20120264685A1 (priority 2009, published 2012)
Where a SMILES comes first, the peptide text is derived from it. [ ]: non-standard residue; d: D form. ξ: configuration not given here. ξαMeBip(2'-Et,4'-OMe) = CCc1cc(OC)ccc1-c1ccc(CC(C)(N)C(=O)O)cc1; ξαMePhe(2,6-F2) = CC(N)(Cc1c(F)cccc1F)C(=O)O; ξαMe(hhPhe) = CC(N)(CCCc1ccccc1)C(=O)O; ξhhPhe = NC(CCCc1ccccc1)C(=O)O; ξαMeD = CC(N)(CC(=O)O)C(=O)O; ξαMeS = CC(N)(CO)C(=O)O; Aib = CC(C)(N)C(=O)O

How the values were obtained:
male C57BL/6J mice = assay: Acute single dose 120-min time-course experiment, in vivo glucose reduction; set-up: unit not given here; settings: 2 μM/kg, oral, n = 8, Mean ± SEM
Procedure: Acute single dose 120-min time-course experiments were carried out in male C57BL/6J or db/db mice, age 8-12 weeks, bred in-house. The animals were housed in groups of 6 animals per cage, for a week, in order to habituate them to vivarium conditions (25+4° C., 60-65% relative humidity, 12:12 h light: dark cycle, with lights on at 7.30 am). All the animal experiments were carried out according to the internationally valid guidelines following approval by the ‘Zydus Research Center animal ethical committee’.
[…] On the day of experiment, food was withdrawn from all the cages, water was given ad-libitum and were kept for overnight fasting. Vehicle (normal saline)/test/standard compounds were administered intraperitoneally (i.p.) or orally, on a body weight basis. Soon after the 0 min. blood collection from each animal, the subsequent blood collections were done at 30, 60 and 120 or upto 240 min., via retro-orbital route, under light ether anesthesia (Chen, D., et al., Diabetes Obesity Metabolism, 2005, 7, 307. Kim, J. G. et al., Diabetes, 2003, 52, 751).
The blood samples were centrifuged and the separated serum was immediately subjected for the glucose estimation. The serum for insulin estimation was stored at −70° C. until used for the insulin estimation. The glucose estimation was carried out with DPEC-GOD/POD method (Ranbaxy Fine Chemicals Limited, Diagnostic division, India), using Spectramax-190, in 96-microwell plate reader (Molecular devices Corporation, Sunnyvale, Calif.). […] The AUC and BCAUC obtained from graphs were analyzed for one way ANOVA, followed by Dunnett's post test, using Graph Pad prism software. Furthermore, the insulin estimation was carried out using rat/mouse insulin ELISA kit (Linco research, Missouri USA).

[1] = test system: RIN5F (Rat Insulinoma) cells; assay: In vitro glucose-dependent insulin secretion (RIN5F cell assay); type: cell-based; settings: 16.7-mM glucose load, n = 3, mean ± S.D.
Procedure: RIN5F (Rat Insulinoma) cells were cultured in RPMI 1640 medium supplemented with sodium pyruvate (1 mM) HEPES and Glucose (4.5 g/L) in a humidified incubator (5% CO2), at 37° C. After trypsinization, RIN5F cells were seeded at a concentration of 0.2×10^6 cells per well, in 12 well plates. The cells were grown overnight to 80% confluence and insulin secretion experiments were performed as follows (Montrose-Rafizadeh C., et al., Mol. Cell. Endo. 1997, 130, 109.; Wang, X., et al., Endocrinology 2001, 5, 1820).
The cells were washed once with PBS solution followed by 40 min. incubation in fresh Krebs-Ringer Balanced Buffer containing NaCl (115 mmol/L), KCl (4.7 mmol/L), CaCl2 (1.28 mmol/L), MgSO4.7H2O (1.2 mmol/L), KH2PO4 (1.2 mmol/L), NaHCO3 (10 mmol/L) and HEPES (25 mmol/L), containing Glucose (1.1 mM) and B.S.A (0.5%), pH 7.4. The buffer was replaced after 40 min. and the cells were incubated (37° C.) with the test peptidomimetics, at different concentration, for 30 min., both in the presence (16.7 mM) and absence (0 mM) of glucose load. The supernatant was collected and the insulin amount was measured by ultra sensitive Rat insulin ELISA kit (Crystal Chem, IL). The protein was estimated in the supernatant using Bicinchoninic Acid kit, according to the manufacturer's protocol (Sigma Aldrich, MO). The total insulin content obtained in Pico-gram (pg) was divided with the total protein (μg) in order to normalize for differences in cell density between wells.

With `CCc1cc(OC)ccc1-c1ccc(CC(C)(NC(=O)C(C)(CC(=O)O)NC(=O)[C@H](CO)NC(=O)[C@@H](NC(=O)[C@H](Cc2ccccc2)NC(=O)[C@@H](NC(=O)CNC(=O)[C@H](CCC(N)=O)NC(=O)C(C)(C)NC(=O)[C@H](Cc2c[nH]cn2)NC(=O)[C@@H](N)C(C)C)[C@@H](C)O)[C@@H](C)O)C(=O)NC(CCCc2ccccc2)C(N)=O)cc1` (single isomer, unassigned) [Seq. ID. No. 59, VH-Aib-QGTFTS-(αMe-Asp)-(αMe-Bip(OMe))-(APPA)] the “blood glucose level (in vivo glucose reduction)” value (male C57BL/6J mice; 0 min) was 184 ± 2.5, the “blood glucose level (in vivo glucose reduction)” value (male C57BL/6J mice; 30 min) was 115 ± 3.6 and the “blood glucose level (in vivo glucose reduction)” value (male C57BL/6J mice; 60 min) was 113 ± 4.2. The “blood glucose level (in vivo glucose reduction)” value (male C57BL/6J mice; 120 min) was 110 ± 2.4.
With `CCc1cc(OC)ccc1-c1ccc(CC(C)(NC(=O)C(C)(CC(=O)O)NC(=O)[C@H](CO)NC(=O)[C@@H](NC(=O)[C@H](Cc2ccccc2)NC(=O)[C@@H](NC(=O)CNC(=O)[C@H](CCC(=O)O)NC(=O)C2(C)CCCN2C(=O)[C@H](Cc2c[nH]cn2)NC(=O)[C@@H](N)C(C)C)[C@@H](C)O)[C@@H](C)O)C(=O)NC(CCCc2ccccc2)C(N)=O)cc1` (single isomer, unassigned) [Seq. ID. No. 64, VH-(αMe-Pro)-EGTFTS-(αMe-Asp)-(αMe-Bip(OMe))-(APPA)] the “blood glucose level (in vivo glucose reduction)” value (male C57BL/6J mice; 0 min) was 183 ± 2.4, the “blood glucose level (in vivo glucose reduction)” value (male C57BL/6J mice; 30 min) was 116 ± 3.1 and the “blood glucose level (in vivo glucose reduction)” value (male C57BL/6J mice; 60 min) was 112 ± 4.8. For the same compound, the “blood glucose level (in vivo glucose reduction)” value (male C57BL/6J mice; 120 min) was 110 ± 2.5.
In the case of `CCc1cc(OC)ccc1-c1ccc(CC(C)(NC(=O)C(C)(CC(=O)O)NC(=O)[C@H](CO)NC(=O)[C@@H](NC(=O)C(C)(Cc2c(F)cccc2F)NC(=O)[C@@H](NC(=O)CNC(=O)[C@H](CCC(N)=O)NC(=O)C2(C)CCCN2C(=O)[C@H](Cc2c[nH]cn2)NC(=O)[C@@H](N)C(C)C)[C@@H](C)O)[C@@H](C)O)C(=O)NC(CCCc2ccccc2)C(N)=O)cc1` (single isomer, unassigned) [Seq. ID. No. 76, VH-(αMe-Pro)-QGT-(αMe-2,6-diFPhe)-TS-(αMe-Asp)-(αMe-Bip(OMe))-(APPA)], the “blood glucose level (in vivo glucose reduction)” value (male C57BL/6J mice; 0 min) was 183 ± 2.4, the “blood glucose level (in vivo glucose reduction)” value (male C57BL/6J mice; 30 min) was 116 ± 3.1 and the “blood glucose level (in vivo glucose reduction)” value (male C57BL/6J mice; 60 min) was 112 ± 4.8. For the same compound, the “blood glucose level (in vivo glucose reduction)” value (male C57BL/6J mice; 120 min) was 110 ± 2.5.
In the case of `CCc1cc(OC)ccc1-c1ccc(CC(NC(=O)[C@H](CC(=O)O)NC(=O)[C@H](CO)NC(=O)[C@@H](NC(=O)C(C)(Cc2c(F)cccc2F)NC(=O)[C@@H](NC(=O)CNC(=O)[C@H](CCC(N)=O)NC(=O)[C@H](CO)NC(=O)[C@H](Cc2c[nH]cn2)NC(=O)[C@@H](N)C(C)C)[C@@H](C)O)[C@@H](C)O)C(=O)NC(C)(CCCc2ccccc2)C(N)=O)cc1` (single isomer, unassigned) [Seq. ID. No. 99, VHSQGT-(αMe-2,6-diF-Phe)-TSD-Bip(OMe)-(αMe-APPA)], the “blood glucose level (in vivo glucose reduction)” value (male C57BL/6J mice; 0 min) was 184 ± 2.5, the “blood glucose level (in vivo glucose reduction)” value (male C57BL/6J mice; 30 min) was 118 ± 3.6 and the “blood glucose level (in vivo glucose reduction)” value (male C57BL/6J mice; 60 min) was 113 ± 4.2. The “blood glucose level (in vivo glucose reduction)” value (male C57BL/6J mice; 120 min) was 110 ± 2.4.
In the case of `CCc1cc(OC)ccc1-c1ccc(CC(NC(=O)[C@H](CC(=O)O)NC(=O)[C@H](CO)NC(=O)[C@@H](NC(=O)C(C)(Cc2c(F)cccc2F)NC(=O)[C@@H](NC(=O)CNC(=O)[C@H](CCC(=O)O)NC(=O)C(C)(C)NC(=O)[C@H](Cc2c[nH]cn2)NC(=O)[C@@H](N)C(C)C)[C@@H](C)O)[C@@H](C)O)C(=O)NC(C)(CCCc2ccccc2)C(N)=O)cc1` (single isomer, unassigned) [Seq. ID. No. 105, VH-Aib-EGT-(αMe-2,6-diFPhe)-TSD-Bip(OMe)-(αMe-APPA)], the “blood glucose level (in vivo glucose reduction)” value (male C57BL/6J mice; 0 min) was 185 ± 2.1, the “blood glucose level (in vivo glucose reduction)” value (male C57BL/6J mice; 30 min) was 115 ± 2.8 and the “blood glucose level (in vivo glucose reduction)” value (male C57BL/6J mice; 60 min) was 112 ± 4.9. The “blood glucose level (in vivo glucose reduction)” value (male C57BL/6J mice; 120 min) was 111 ± 2.2.
In the case of `CCc1cc(OC)ccc1-c1ccc(CC(NC(=O)C(C)(CC(=O)O)NC(=O)C(C)(CO)NC(=O)[C@@H](NC(=O)C(C)(Cc2ccccc2F)NC(=O)[C@@H](NC(=O)CNC(=O)[C@H](CCC(N)=O)NC(=O)C2(C)CCCN2C(=O)[C@H](Cc2c[nH]cn2)NC(=O)[C@@H](N)C(C)C)[C@@H](C)O)[C@@H](C)O)C(=O)NC(C)(CCCc2ccccc2)C(N)=O)cc1` (single isomer, unassigned) [Seq. ID. No. 118, VH-(αMe-Pro)-QGT-(αMe-2FPhe)-T-(αMe-Ser)-(αMe-Asp)-Bip(OMe)-(αMe-APPA)], the “blood glucose level (in vivo glucose reduction)” value (male C57BL/6J mice; 0 min) was 184 ± 2.5, the “blood glucose level (in vivo glucose reduction)” value (male C57BL/6J mice; 30 min) was 115 ± 1.6 and the “blood glucose level (in vivo glucose reduction)” value (male C57BL/6J mice; 60 min) was 113 ± 3.2. For the same compound, the “blood glucose level (in vivo glucose reduction)” value (male C57BL/6J mice; 120 min) was 110 ± 2.4.
For `CCc1cc(OC)ccc1-c1ccc(CC(C)(NC(=O)[C@H](CC(=O)O)NC(=O)C(C)(CO)NC(=O)[C@@H](NC(=O)C(C)(Cc2c(F)cccc2F)NC(=O)[C@@H](NC(=O)CNC(=O)[C@H](CCC(N)=O)NC(=O)C(C)(C)NC(=O)[C@H](Cc2c[nH]cn2)NC(=O)[C@@H](N)C(C)C)[C@@H](C)O)[C@@H](C)O)C(=O)NC(C)(CCCc2ccccc2)C(N)=O)cc1` (stereo partly drawn) [compound 175] (H-VH[Aib]QGT[ξαMePhe(2,6-F2)]T[ξαMeS]D[ξαMeBip(2'-Et,4'-OMe)][ξαMe(hhPhe)]-NH2), the “Insulin secretion” value ([1]; 0.1 nM test compd.) was 12.4 ± 0.22 pg/µg/h, the “Insulin secretion” value ([1]; 1 nM test compd.) was 15.2 ± 0.32 pg/µg/h and the “Insulin secretion” value ([1]; 10 nM test compd.) was 29.6 ± 0.50 pg/µg/h.
In the case of `CCc1cc(OC)ccc1-c1ccc(CC(C)(NC(=O)C(C)(CC(=O)O)NC(=O)[C@H](CO)NC(=O)[C@@H](NC(=O)[C@H](Cc2ccccc2)NC(=O)[C@@H](NC(=O)CNC(=O)[C@H](CCC(N)=O)NC(=O)[C@H](C)NC(=O)[C@H](Cc2c[nH]cn2)NC(=O)[C@@H](N)C(C)C)[C@@H](C)O)[C@@H](C)O)C(=O)NC(C)(CCCc2ccccc2)C(N)=O)cc1` (stereo partly drawn) [compound 182] (H-VHAQGTFTS[ξαMeD][ξαMeBip(2'-Et,4'-OMe)][ξαMe(hhPhe)]-NH2), the “Insulin secretion” value ([1]; 0.1 nM test compd.) was 13.1 ± 0.11 pg/µg/h, the “Insulin secretion” value ([1]; 1 nM test compd.) was 14.9 ± 0.17 pg/µg/h and the “Insulin secretion” value ([1]; 10 nM test compd.) was 28.8 ± 0.44 pg/µg/h.
For `CCc1cc(OC)ccc1-c1ccc(CC(C)(NC(=O)[C@H](CC(=O)O)NC(=O)[C@H](CO)NC(=O)[C@@H](NC(=O)[C@H](Cc2ccccc2)NC(=O)[C@@H](NC(=O)CNC(=O)[C@H](CCC(=O)O)NC(=O)[C@H](C)NC(=O)[C@H](Cc2c[nH]cn2)NC(=O)[C@@H](NC(=O)[C@@H](N)C(C)C)C(C)C)[C@@H](C)O)[C@@H](C)O)C(=O)NC(CCCc2ccccc2)C(N)=O)cc1` (stereo partly drawn) [compound 210] (H-VVHAEGTFTSD[ξαMeBip(2'-Et,4'-OMe)][ξhhPhe]-NH2), the “Insulin secretion” value ([1]; 0.1 nM test compd.) was 16.3 ± 0.15 pg/µg/h, the “Insulin secretion” value ([1]; 1 nM test compd.) was 22.4 ± 0.21 pg/µg/h and the “Insulin secretion” value ([1]; 10 nM test compd.) was 36.2 ± 0.11 pg/µg/h.
